# Assay results: patent publication US10299467B2, “Animal model for type 2 diabetes and obesity” (Universitaetsklinikum Freiburg, priority 2012, dated 2019)
# Experiments:
# Format in all cases: in vivo, mouse
# WAT of mice [1] = experiment: β3-adrenergic agonist treatment of Ctrl and LSD1+/− mice, qRT-PCR transcript levels in WAT
# Experimental: (§1) All mice were housed in the pathogen-free barrier facility of the University Medical Center Freiburg in accordance with institutional guidelines and approved by the regional board. Mice were maintained in a temperature- and humidity-controlled animal facility with a 12-hour light/dark cycle, free access to water, and a standard rodent chow (Kliba, breeding, 3807). The high-fat diet (HFD) study was carried out with a chow containing 4.056 kcal/kg (fat: 1.600 kcal/kg and sucrose: 1.600 kcal/kg; Research Diets). HFD was given to mice at 5 weeks of age. Mice were analysed at 25 weeks of age. For cold exposure experiments, mice were maintained at 10° C. with a 12 hour light/dark cycle, free access to water, and a standard rodent chow. Animals were killed by cervical dislocation, tissues were immediately collected, weighted, frozen in liquid nitrogen or processed for further analyses. Nomenclature for dissected adipose depots was used according to Seale et al.^17. Epididymidal WAT (epWAT): prominent bilateral intra-abdominal visceral depots in male mice attached to the epididymis. Inguinal WAT (ingWAT): bilateral superficial inguinal depots between the skin and muscle fascia just anterior to the lower segment of the hind limbs. Perimuscular WAT (pmWAT): depots located on the upper part of the quadriceps muscle. Retroperitoneal WAT (rpWAT): bilateral depots in abdominal cavity behind the peritoneum on the dorsal side of the kidney. Interscapular BAT (BAT): most prominent depot of brown adipocytes in rodents, found between the scapulae. In vivo experiments including food consumption, serum analysis, glucose tolerance and insulin sensitivity tests, temperature measurements, body lean and fat contents, and energy expenditure were described^48. CL316,243 (Sigma-Aldrich) was injected intraperitoneally at 1 mg/kg.
# RNA was isolated with TRIzol Reagent (Invitrogen). […] Quantitative RT-PCR was performed using the Abgene SYBR Green PCR kit (Invitrogen) according to the supplier's protocol. Data were analysed using the standard curve method^53. […]
# WAT of mice [2] = experiment: β3-adrenergic agonist treatment of mice, H&E staining of white adipose tissue (beige fat islets)
# Experimental: as §1, with “Retroperitoneal WAT (rpWAT): bilateral depots in abdominal cavity behind the peritoneum on the dorsal side of the kidney. Interscapular BAT (BAT): most prominent depot of brown adipocytes in rodents, found between the scapulae. In vivo experiments including food consumption, serum analysis, glucose tolerance and insulin sensitivity tests, temperature measurements, body lean and fat contents, and energy expenditure were described^48. CL316,243 (Sigma-Aldrich) was injected intraperitoneally at 1 mg/kg.” left out
# LSD1 = experiment: β3-adrenergic agonist treatment of mice, Western blot of LSD1 in WAT; settings: wild-type mice, CL316,243 injected intraperitoneally at 1 mg/kg vs vehicle
# Experimental: All mice were housed in the pathogen-free barrier facility of the University Medical Center Freiburg in accordance with institutional guidelines and approved by the regional board. Mice were maintained in a temperature- and humidity-controlled animal facility with a 12-hour light/dark cycle, free access to water, and a standard rodent chow (Kliba, breeding, 3807). The high-fat diet (HFD) study was carried out with a chow containing 4.056 kcal/kg (fat: 1.600 kcal/kg and sucrose: 1.600 kcal/kg; Research Diets). HFD was given to mice at 5 weeks of age. Mice were analysed at 25 weeks of age. For cold exposure experiments, mice were maintained at 10° C. with a 12 hour light/dark cycle, free access to water, and a standard rodent chow. Animals were killed by cervical dislocation, tissues were immediately collected, weighted, frozen in liquid nitrogen or processed for further analyses. Nomenclature for dissected adipose depots was used according to Seale et al.^17. […]
# Homogenates were separated in 10% polyacrylamide gels and blotted to Hybond nitrocellulose membranes (GE Healthcare). […] Secondary antibodies conjugated to horseradish peroxidase (GE Healthcare) were detected using an enhanced chemiluminescence detection system (GE Healthcare). Protein levels were quantified using the Chemi Capt software (Peqlab).
smiles,measurement,setting,value
"C[C@H](Cc1ccc2c(c1)OC(C(=O)[O-])(C(=O)[O-])O2)NC[C@H](O)c1cccc(Cl)c1.[Na+].[Na+] [CL316,243]",expression of white fat-selective and adipogenic markers,"WAT of mice [1]; Ctrl and LSD1+/− mice, vs vehicle",not significantly affected
same,"adrenergic induction of Cidea, Prdm16, Pgc-1α, Ucp1 and beige fat-selective markers in WAT",WAT of mice [1]; LSD1+/− mice,impaired
same,"expression of Cidea, Prdm16, Pgc-1α, and Ucp1 and of beige fat-selective markers in WAT","WAT of mice [1]; control mice, vs vehicle",significantly increases
same,clusters of beige fat cells in WAT,"WAT of mice [2]; LSD1+/− mice compared to control mice, both treated with CL316,243",fewer clusters of beige fat cells
same,beige adipocyte formation in WAT,"WAT of mice [2]; wild-type mice, CL316,243 injected intraperitoneally at 1 mg/kg vs vehicle",appearance of multilocular beige adipocytes
same,LSD1 protein levels in WAT,LSD1,increased
